{"source": "patent US20230135501A1", "about": "“GENE THERAPY” (UCL BUSINESS LTD, priority 2020, published 2023)", "format_in_all_cases": "cell-based", "key": {"[1]": {"system": "porcine primary RPE cells", "assay": "POS-induced pseudopod/contractile cup formation, pMLC and POS centring at 30 min in primary porcine RPE cells", "text": "Fixation and processing cells and mouse tissue sections was as previously described in Zihni, C. et al (2017). The following antibodies were used: RPE65 mouse monoclonal (Millipore) 1/300 for immuno-fluorescence; p-MLC S19, mouse monoclonal (Cell Signaling Technology) immunofluorescence 1/100 and immunoblotting 1/1000; Dbl(3), rabbit polyclonal (Santa Cruz Biotechnology) immunofluorescence 1/200; MRCKβ, rabbit polyclonal (Santa Cruz Biotechnology) immunofluorescence 1/200 and immunoblotting 1/500; anti-Cdc42-GTP mouse monoclonal (NewEast Biosciences) immunofluorescence 1/50; N-WASP, rabbit polyclonal (Santa Cruz Biotechnology) immunofluorescence and immunoblotting 1/1000; MerTK rabbit monoclonal (Abcam 52968) immunofluorescence 1/100; Integrin αVβ5, mouse monoclonal (Clone P1F6) (Abcam 24694) immunofluorescence 1/100; pFAK Y397, rabbit polyclonal (Invitrogen) immunofluorescence 1/100; pSrc Y416, rabbit polyclonal (Cell Signaling Technology) immunofluorescence 1/100; Phalloidin-Atto 647 reagent was obtained from Sigma and diluted 1/1000. Affinity-purified and cross-adsorbed Alexa488-, Cy3- and Cy5-labelled donkey anti-mouse, rabbit, or goat secondary antibodies were from Jackson ImmunoResearch Laboratories (1/300 diluted from 50% glycerol stocks). Affinity-purified HRP-conjugated goat anti mouse and rabbit, and donkey anti goat secondary antibodies 1/5000 were also from Jackson ImmunoResearch Laboratories (1/5000 diluted from 50% glycerol stocks). For immunofluorescence analysis cells and tissues were mounted using Prolong Gold antifade reagent (Life technologies) and imaging was performed using Zeiss 700 and 710 confocal microscopes and a 64× oil lens/NA1.4. Images were processed using Zeiss Zen 2009 and Adobe Photoshop CS5 and 10 software. Co-immunoprecipitation and immunoblotting were carried out using methods previously described and were repeated at least three times."}, "[2]": {"system": "porcine primary RPE cells", "assay": "POS phagocytosis (internalization) in primary porcine RPE cells", "set-up": "ability of RPE cells to internalize POS (confocal z-sections): dose or concentration left out as unconfirmed", "text": "Wilcoxon tests also were used where indicated.\nThe inventors next asked whether MRCKβ is directly involved in POS internalization using porcine primary RPE cells. […] MRCK was not required for POS to attach to the RPE, indicating integrin αVβ5-POS binding was not affected (FIGS. 2b and 2f). POS binding stimulates the formation of extended pseudopods that retract with internalization of POS. […] Thus, MRCKβ controls POS-induced membrane remodelling during phagocytic cup formation and particle internalization."}, "Primary porcine RPE": {"system": "Primary porcine RPE", "assay": "POS/Gas-6 stimulated pseudopod assembly in serum-free primary porcine RPE", "settings": "serum-free medium 4 h, 30 min stimulation with POS-FITC, with Gas-6", "procedure": "Primary porcine RPE was cultured in serum-free medium, to eliminate effects of MerTK ligands, for 4 h followed by treatment with either N-WASP or MRCK inhibitor and a 30 min stimulation with POS-FITC in the absence or presence of Gas-6, which links MerTK to POS."}}}
{"molecule": "Cc1ccc2c(c1)C(=O)C1(O)CCN(c3ccccc3)C1=N2", "note": "(stereo not shown) [blebbistatin, Blebbistatin]", "values": [{"measurement": "pseudopod/cup organization", "setting": "[1]; Blebbistatin used at 10 μM", "result": "disorganised pseudopods"}, {"measurement": "POS centring at pseudopods/cups", "setting": "[1]; POS for 30 minutes", "result": "loss of efficient POS centring"}]}
{"molecule": "CN(C)C[C@H](O)Cn1c2ccc(Br)cc2c2cc(Br)ccc21", "note": "(racemic) [Wiskostatin]", "values": [{"measurement": "pMLC activity/staining at pseudopods/cups", "setting": "[1]; POS for 30 minutes", "result": "reduced"}, {"measurement": "less F-actin in pseudopods when compared to control cells", "setting": "[1]; Wiskostatin used at 5 μM", "result": "approx. 50%"}, {"measurement": "number of cells forming normal pseudopods", "setting": "[1]; Wiskostatin used at 5 μM", "result": "drastic reduction"}]}
{"molecule": "O=C(Nc1cn[nH]c1-c1ccccn1)c1nn(C2CCNCC2)cc1Cl", "note": "[BDP5290]", "values": [{"measurement": "phagocytosis of GOLD-labelled POS (transmission electron microscopy)", "setting": "[2]; GOLD-labelled POS, TEM", "result": "inhibition of phagocytosis"}, {"measurement": "ability of RPE cells to internalize POS (confocal z-sections)", "setting": "[2]; POS-FITC 1 h followed by 2 h chase", "result": "strongly inhibited"}, {"measurement": "POS-dependent pseudopod assembly", "setting": "Primary porcine RPE", "result": "did not inhibit"}, {"measurement": "POS centring at pseudopods/cups", "setting": "[1]; POS for 30 minutes", "result": "un-centred POS"}, {"measurement": "efficiency of POS binding to RPE cells", "setting": "[1]; POS for 30 minutes", "result": "unaltered"}, {"measurement": "pMLC activity/staining at pseudopods/cups", "setting": "[1]; POS for 30 minutes", "result": "lack pMLC activity"}, {"measurement": "MLC phosphorylation after blebbistatin washout", "setting": "[1]; washout of blebbistatin in the presence of the MRCK inhibitor", "result": "inhibition of MLC phosphorylation"}]}
{"molecule": "Gas-6: growth arrest-specific 6, soluble protein which links MerTK to POS (protein, UniProt Q14393 31-678, looked up) Growth arrest-specific …: ALLPAREATQFLRPRQRRAFQVFEEAKQGHLERECVEELCSREEAREVFENDPETDYFYPRYLDCINKYGSPYTKNSGFATCVQNLPDQCTPNPCDRKGTQACQDLMGNFFCLCKAGWGGRLCDKDVNECSQENGGCLQICHNKPGSFHCSCHSGFELSSDGRTCQDIDECADSEACGEARCKNLPGSYSCLCDEGFAYSSQEKACRDVDECLQGRCEQVCVNSPGSYTCHCDGRGGLKLSQDMDTCEDILPCVPFSVAKSVKSLYLGRMFSGTPVIRLRFKRLQPTRLVAEFDFRTFDPEGILLFAGGHQDSTWIVLALRAGRLELQLRYNGVGRVTSSGPVINHGMWQTISVEELARNLVIKVNRDAVMKIAVAGDLFQPERGLYHLNLTVGGIPFHEKDLVQPINPRLDGCMRSWNWLNGEDTTIQETVKVNTRMQCFSVTERGSFYPGSGFAFYSLDYMRTPLDVGTESTWEVEVVAHIRPAADTGVLFALWAPDLRAVPLSVALVDYHSTKKLKKQLVVLAVEHTALALMEIKVCDGQEHVVTVSLRDGEATLEVDGTRGQSEVSAAQLQERLAVLERHLRSPVLTFAGGLPDVPVTSAPVTAFYRGCMTLEVNRRLLDLDEAAYKHSDITAHSCPPVEPAAA", "values": [{"measurement": "POS-dependent pseudopod assembly", "setting": "Primary porcine RPE", "result": "sharp increase"}]}
